Measurements published in patent US6410040B1, “Polymeric compounds and methods of formulating same” (Chemeq Limited, priority 1998, dated 2002).

Assays:
S. aureus = assay: Minimal Kill Concentration Test; assay type: cell-based
Description: (§1) 2. Minimal Kill Concentration Test
(§2) Make serial 1 in 2 dilutions of the sample using sterile 0.85% saline. Add 0.1 mL of suspension of test organism to the dilution. Incubate at 37° C. for 24 hours. Subculture 1 mL from each tube into 10 mL sterile nutrient broth plus TWEEN 80; incubate at 37° C. for 24 hours.
(§3) If the Minimum Kill Concentrations of compounds A, B, and a mixture of A and B are a, b and m, respectively, then there is synergy (“S”) upon mixing A and B if
(§4) ie. S=(a+b)/m>1 for synergy

Ps. aeruginosa = assay: Minimal Kill Concentration Test; assay type: cell-based
Description: as §1, §2, §3, §4

[1] = Migration of sunscreen agents across a membrane model for skin; assay type: in vitro ADME; conditions: solution in ethanol
Description: The effects of the presence of poly(2-propenal, 2-propenoic acid) on the migration of various agents across a model for skin were studied as follows. Results are shown in Table 8: In a special apparatus, the samples were applied to one side of a 0.45 micron cellulose acetate membrane in contact with, on the other side, a stirred solution of ethanol. “After” 1.5 hours, the spectrum of the “ethanol” was compared with the “Before” solution of sample in the same solvent: […]

C. albicans = assay: Minimal Kill Concentration Test; assay type: cell-based; conditions: Experiment 1
Description: as §1, §2, §3, §4

E. coli = assay: Minimal Kill Concentration Test; assay type: cell-based; conditions: Experiment 1
Description: as §1, §2, §3, §4

A. niger = assay: Minimal Kill Concentration Test; assay type: cell-based; conditions: Experiment 1
Description: as §1, §2, §3, §4

P. vulgaris = assay: Minimal Kill Concentration Test; assay type: cell-based; conditions: Experiment 1
Description: as §1, §2, §3, §4

B. cereus = assay: Minimal Kill Concentration Test; assay type: cell-based; conditions: Experiment 1
Description: as §1, §2, §3, §4

In the case of `O=CCCCC=O` [glutaraldehyde], the “Minimum Kill Concentration S. aureus” value (S. aureus; Experiment 2) is reported as 80 p.p.m and the “Minimum Kill Concentration Ps. aeruginosa” value (Ps. aeruginosa; Experiment 2) is reported as 155 p.p.m.

In the case of `CCCCC(CC)COC(=O)c1ccc(N(C)C)cc1` (stereo not shown) [octyl dimethyl p-aminobenzoate], the “max (UV spectrum), Before” value [1] is reported as “max = 315 nm”.

For `O=C(O)CN(CCN(CC(=O)O)CC(=O)O)CC(=O)O` [EDTA, ethylene diamine tetra acetic acid], the “Minimum Kill Concentration C. albicans” value (C. albicans) was 155 p.p.m, the “Minimum Kill Concentration S. aureus” value (S. aureus; Experiment 1) was 625 p.p.m and the “Minimum Kill Concentration E. coli” value (E. coli) was 80 p.p.m. For the same compound, the “Minimum Kill Concentration Ps. aeruginosa” value (Ps. aeruginosa; Experiment 1) was 625 p.p.m, the “Minimum Kill Concentration A. niger” value (A. niger) was 1250 p.p.m and the “Minimum Kill Concentration P. vulgaris” value (P. vulgaris) was 155 p.p.m. The “Minimum Kill Concentration B. cereus” value (B. cereus) was 80 p.p.m.

With `CCCCC(CC)COC(=O)C=Cc1ccc(OC)cc1` (stereo not shown) [octyl methoxy cinnimate] the “max (UV spectrum), Before” value [1] was “max = 310 nm”.

In the case of `Oc1ccccc1-c1ccccc1.[Na]` [phenol, orthophenylphenol, sodium salt], the “Minimum Kill Concentration S. aureus” value (S. aureus; Experiment 2) is reported as 20 p.p.m and the “Minimum Kill Concentration Ps. aeruginosa” value (Ps. aeruginosa; Experiment 2) is reported as over 10000 p.p.m.
